For one data set, the system named is GFAP. The data set can be described thus: GFAP in vivo toxicity assay (ddPCR of Gfap mRNA after intravitreal injection). As to conditions: 5 days, mouse; for GFAP score (± SD): intravitreal 1.6 ug per eye, Gfap mRNA normalised to housekeeping genes. From the text: Glial fibrillary acidic protein (GFAP) is an intermediate-filament cytoskeletal protein. Levels of GFAP are strongly influenced by injury or stress in some cell types and GFAP expression has become an important marker of injury in the central nervous system. In the eye, Muller glia cells normally express low levels of GFAP which increases considerably following retinal injury.
Expression of GFAP mRNA was quantified via amplification of cDNA obtained as part of the in vivo Smn efficacy assay described above. ddPCR was performed using BioRad droplet generator and reader (QX200 DG8) and thermocyclers (T100), specific probes for murine Gfap (dMmuCPE5116126) and housekeeping genes Gapdh, Eef1a1 and Rp127 (dMmuCPE5195283, dMmuCPE5101732 and dMmuCPE5197083) as well as ddPCR Master mix for Probes (#1863024) and other ddPCR specific consumables from BioRad (#1863005, 12001925, 1863004, 1864007).
Assay results were obtained by BioRad ddPCR software in copies/uL. This was then normalised to housekeeping genes for comparison across experiments.

The test system of another data set is exon 7 of the SMN1 gene. In words: In vitro SMN1 efficacy assay (exon-7 skipping, ARPE-19 cells). The note with it: for Percent exon7-skipped SMN1 transcript (± SD): 48 h post treatment. It counts as cell-based, human. The procedure: Potential CPP peptides were linked to a […] that targets exon 7 of the SMN1 gene (Flynn et al 2018), using strain-promoted (SPAAC) click chemistry (Agard et al 2004, Dommerholt et al. 2016). Peptide-PMO conjugates were incubated on ARPE-19 cells for 2 days in full media. Efficacy of internalization was measured by the degree of exon7 skipping in the SMN1 gene RNA transcript through RNA extraction. Peptide-PMOs with % d7 transcript higher than the PMO treatment alone were considered CPPs.
Using the SMN1 gene, we built an exon-skipping assay targeting the SMN1 gene (Flynn et al 2018) at exon-7 using a phosphorodiamidate morpholino oligonucleotide (PMO) conjugated to different CPPs. This assay was used to identify CPPs that could efficiently deliver PMO cargo to the nucleus and effect exon-skipping of SMN1. Efficiency of delivery and function was determined by measuring the change in D7-SMN1 RNA transcript, using RNA extraction, cDNA generation and PCR using SMN1-specific primers. Efficiency was interpreted by the higher the percentage D7-SMN1 transcript, the better the delivery to the nucleus by the CPP.
Exon skipping assays and PCR detection were performed according to published protocols (Mann et al 2002, Gene Med, 4, 644-654).
Retinal pigment epithelial cells (ARPE-19) immortalized cells were treated with various concentrations (4 uM, 2 uM, 1 uM, in duplicate) of CPP-PMO conjugate and SMN1 transcript levels assessed 48 h post treatment by RNA extraction and purification, followed by cDNA generation and PCR.
(§1) Cells were seeded in 24-well plates (ARPE-19, 2.5×10^4 cells/well) in complete medium (DMEM/F12 1:1, 10% FCS; 10 mM HEPES, 1× GlutaMAX™, Pen/Strep 100 u/ml; Gibco, Thermo Fisher Scientific, Waltham, Mass., USA). Cells were incubated overnight (37° C., 5% CO2) to allow for cell adherence. On the day of the assay, media was aspirated and replaced with CPP-PMO or PMO only diluted in treatment media (DMEM/F12 1:1, 10% FCS; 10 mM HEPES, 1× GlutaMAX™, Pen/Strep 100 u/ml; Gibco, Thermo Fisher Scientific, Waltham, Mass., USA), followed by incubation (37° C., 5% CO2) for 24 h. Fresh media 1:1 was added the following day and cells returned to the incubator for a further 24 h.
48 h post-treatment, the cell media was carefully aspirated, and cells rinsed with PBS. RNA from the treated cells was obtained using commercial RNA extraction kits according to manufacturer's protocol (Bio-Rad Aurum total RNA 96 kit; Quantify RNA yield; Quant-iT RNA BR kit).
Extracted RNA was purified, quantified and then diluted to 10 ng/ul. cDNA was produced using a commercial reverse transcription kit according to the manufacturers protocol (BioRad iScript). The produced cDNA was used as a template with primers designed to amplify region of interest, to amplify the DNA. The efficacy of exon skipping was determined by quantifying full length (FL SMN1) and exon-7 skipped fragment (D7-SMN1) of the SMN1 gene (LC-GX Nucleic Acid Analyzer) and calculating a percentage. The higher the percentage of D7-SMN1 DNA, the greater the CPP delivery efficiency

The subject of another data set is ARPE-19 cells. In words: In vitro SMN1 viability assay (CellTiter-Glo). It is filed as cell-based. The note with it: for Percent Mean Viability (± SD): 48 h. The procedure: as §1, with “96-well” for “24-well”, “4×10^3” for “2.5×10^4”, “USA) at various concentrations (32, 16, 8, 4, 2, and 1 uM),” for “USA),”
48 h post-treatment, viability of the cells was measured using the commercial CellTiter-Glo® Luminescent Cell Viability Assay (Promega, Australia). In brief the CellTiter-Glo reagent lyses the cells and generates a luminescent signal that is proportional to the amount of ATP present, which in turn is directly proportional to the number of live cells present in culture. All assays were conducted with a known cytotoxic agent, melittin (Renata et al. 2007), and cell only control. Cell viability was used to determine the level of toxicity caused by the CPP-PMO conjugates, where high viability equates to low toxicity, and low viability with high toxicity, respectively.

The test system of a further data set is Smn gene exon 7. In words: In vivo Smn efficacy assay (IVT administration), exon-7 skipping in ocular tissues. The note with it: mouse; for Percent exon7-skipped SMN1 transcript (± SD): intravitreal 1.6 ug per eye. From the text: The in vitro SMN1 efficacy assay described in Example 1 is equally applicable to the in vivo setting, given the ubiquitous distribution of the Smn gene in the mouse body, Smn being the mouse orthologue of the human SMN1. The use of natural L-peptides is undesirable in the in vivo setting, due to presence of a vast array of proteases in the body. To adequately assess the peptide's cell-penetrating capacity, peptides were synthesized as either mixed-L/D amino acid containing peptides, where all basic residues were D-amino acids, or as full-D amino acid containing peptides. Both approaches have been established to protect peptides from proteolytic degradation during systemic administration into animals.
The ability of CPP-PMOs to deliver the Smn cargo in vivo to the RPE cell later in the eye was assessed by administration into the vitreous humor of mice and measuring the change in Smn transcript levels in the retina, RPE and choroid cell layers after 5, 7, 21 and 28 days. The CPP of the present invention (SEQ ID NO: 1) and control CPP Pip6a (SEQ ID NO: 3), conjugated to an Smn PMO (SEQ ID NO: 2), were administered by intravitreal injection at 1.6 ug (0.5 ul volume) per eye. At the desired time point post treatment, the animals were culled and eyes were dissected, tissue layers homogenised and RNA extracted using the same protocol as per Example 1.
The efficiency of delivery and function to the various organs was determined by measuring the change in Smn RNA transcript from full-length to an exon-7 skipped fragment (D7-Smn) RNA transcript, using RNA extraction, cDNA generation and PCR using Smn-specific primers. Efficiency was interpreted by the higher the percentage D7-Smn transcript, the better the delivery to the tissue by the CPP.
Exon skipping assays and RT-PCR detection were performed according to published protocols (Mann et al 2002, Gene Med, 4, 644-654).
Mice (C576/6; age 7 weeks) were sourced from Australian BioResources (ABR). Selected CPP-PMOs were injected into the vitreous at 1.6 ug (0.5 ul) per eye, with one to three mice per treatment group.
48 h post-treatment, mice were culled, and the following ocular tissues harvested; retina, RPE layer or RPE/choroid combined. The tissues were homogenised, and RNA was obtained using commercial RNA extraction kits according to manufacturer's protocol (Bio-Rad Aurum total RNA 96 kit; Quantify RNA yield; Quant-iT RNA BR kit).
Extracted RNA was purified, quantified and then diluted to 10 ng/ul. cDNA was produced using a commercial reverse transcription kit according to the manufacturers protocol (BioRad iScript). The produced cDNA was used as a template with primers designed to amplify region of interest, to amplify the DNA. The efficacy of exon skipping was determined by quantifying full length (FL Smn) and exon-7 skipped fragment (D7-Smn) of the Smn gene (LC-GX Nucleic Acid Analyzer) and calculating a percentage. The higher the percentage of D7-Smn DNA, the greater the CPP delivery efficiency.

As to “ACTTTCCTTCTTTTTTATTTTGTCT (PMO, 5' cyclooctyne handle, chemistry not fully specified; listed as Homo sapiens) [SEQ ID NO: 2, phosphorodiamidate morpholino oligonucleotide (PMO) targeting exon 7 of SMN1, with 5' cyclooctyne handle; unconjugated cargo control]”, the “GFAP score (± SD)” value with GFAP stood at 0.0262. Further, the “Percent exon7-skipped SMN1 transcript (± SD)” value with exon 7 of the SMN1 gene (1 uM) is 16.59 (± 4.07) Percent; in the data set on exon 7 of the SMN1 gene (2 uM) it was 17.35 (± 4.97) Percent; in the data set with exon 7 of the SMN1 gene (4 uM), 18.34 (± 5.99) Percent; in the data set on Smn gene exon 7 (RPE/choroid, 5 days), 0.00%; with Smn gene exon 7 (RPE/choroid, 7 days) it was 0.00%; with Smn gene exon 7 (retina, 5 days), 0.00%. In addition, in the data set with Smn gene exon 7 (retina, 28 days), the “Percent exon7-skipped SMN1 transcript (± SD)” value is recorded as 0.77%. For the same substance, the “Percent Mean Viability (± SD)” value in the data set with ARPE-19 cells (2 uM) is 99.41%; in the data set on ARPE-19 cells (4 uM) it was 100.01%; in the data set with ARPE-19 cells (8 uM), 99.11%; in the data set on ARPE-19 cells (16 uM), 97.42%; in the data set with ARPE-19 cells (32 uM) it was 93.61%.

Take “RXRRBRRXRYQFLIRXRBRXRB[azk]ACTTTCCTTCTTTTTTATTTTGTCT [SEQ ID NO: 3[azk]2]”: the “GFAP score (± SD)” value in the data set on GFAP is 0.1637. Also, the “Percent exon7-skipped SMN1 transcript (± SD)” value with Smn gene exon 7 (RPE/choroid, 5 days) was determined as 9.94%; with Smn gene exon 7 (RPE/choroid, 7 days) it was 6.70%; in the data set on Smn gene exon 7 (retina, 5 days), 21.66%; in the data set on Smn gene exon 7 (retina, 28 days) it was 3.39%.

With “rrsrtaraGrpGrnssrpsapr[azk]ACTTTCCTTCTTTTTTATTTTGTCT (chain 1 RRSRTARAGRPGRNSSRPSAPR; chain 2 actttccttcttttttattttgtct; azidolysine SPAAC click linkage; listed as Homo sapiens) [SEQ ID NO: 1[azk]2]”, the “GFAP expression in vivo (in words)” value with GFAP (intravitreal) is “very little GFAP expression”. For the same substance, the “GFAP score (± SD)” value in the data set on GFAP is 0.0324. In addition, the “Percent exon7-skipped SMN1 transcript (± SD)” value in the data set on exon 7 of the SMN1 gene (1 uM) is on record as 19.44 (± 3.82) Percent; in the data set on exon 7 of the SMN1 gene (2 uM) it was 21.38 (± 2.10) Percent; in the data set with exon 7 of the SMN1 gene (4 uM), 29.99 (± 3.96) Percent; with Smn gene exon 7 (RPE/choroid, 5 days), 13.05%; in the data set on Smn gene exon 7 (RPE/choroid, 7 days) it was 12.22%; in the data set on Smn gene exon 7 (retina, 5 days), 19.61%. Further, in the data set on Smn gene exon 7 (retina, 28 days), the “Percent exon7-skipped SMN1 transcript (± SD)” value is 13.71%. Also, the “Efficiency in inducing SMN1 exon-skipping relative to SMN1 PMO only treatment” value in the data set on exon 7 of the SMN1 gene (2 uM) was 1.2 fold. The “Percent Mean Viability (± SD)” value with ARPE-19 cells (2 uM) stood at 102.61%; in the data set with ARPE-19 cells (4 uM), 105.23%; with ARPE-19 cells (8 uM), 103.34%; in the data set on ARPE-19 cells (16 uM), 102.52%; in the data set on ARPE-19 cells (32 uM), 98.20%. In addition, the “Cell viability relative to PMO alone (less deleterious)” value with ARPE-19 cells (32 uM for 48 hours) is 1.05 fold. Further, the “Truncated D7-Smn transcript in vivo compared with Smn PMO alone (in words)” value in the data set on Smn gene exon 7 (intravitreal, RPE/choroid and retina) is “creates more truncated D7-Smn transcript than the Smn PMO alone”.

These data come from patent publication US20230048338A1, “NOVEL CELLULAR DELIVERY METHODS” (PYC Therapeutics Limited, priority 2019, published 2023).
